Test results published in patent US20220348590A1, “CYCLOOXYGENASE-2 INHIBITORS AND USES THEREOF” (The Board Institute, Inc., priority 2019, published 2022).
≈ marks a conversion by molar mass, not a printed value. Read-outs that look alike come from different tables or passages of the source.

Key:
ovine COX-1 (oCOX-1) = target: T1, ovine COX-1 (oCOX-1) (Ovis aries, UniProt P05979); test: LCMS-based COX-1 enzymatic inhibition assay (PGE2 quantification); format: biochemical; details: 10 minutes
T1 construct: purchased Cayman Chemicals (Ann Arbor, Mich.)
T1 sequence (P05979 25-600): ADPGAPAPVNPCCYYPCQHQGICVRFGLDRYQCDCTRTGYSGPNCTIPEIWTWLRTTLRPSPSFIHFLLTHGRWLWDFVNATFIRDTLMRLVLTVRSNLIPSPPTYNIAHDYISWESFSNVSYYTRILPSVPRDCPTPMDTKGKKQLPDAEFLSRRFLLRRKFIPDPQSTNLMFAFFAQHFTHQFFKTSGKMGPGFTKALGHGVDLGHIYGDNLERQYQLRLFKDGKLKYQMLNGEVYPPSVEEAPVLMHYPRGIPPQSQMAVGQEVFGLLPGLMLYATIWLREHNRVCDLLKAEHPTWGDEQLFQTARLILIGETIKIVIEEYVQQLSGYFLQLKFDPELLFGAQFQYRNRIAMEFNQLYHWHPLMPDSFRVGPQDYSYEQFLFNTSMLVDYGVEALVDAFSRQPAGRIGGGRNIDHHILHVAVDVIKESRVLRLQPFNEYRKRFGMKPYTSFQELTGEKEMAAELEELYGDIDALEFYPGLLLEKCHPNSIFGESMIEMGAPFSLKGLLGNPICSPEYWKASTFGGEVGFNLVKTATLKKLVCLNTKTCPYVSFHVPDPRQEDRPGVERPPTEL
Outline: (§1)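 Ovine COX-1 (0.1 μg) or human recombinant COX2 (0.2 μg) in 100 mM Tris.HCl pH 8.0 with hematin and epinephrine, preincubated with inhibitor 10 min at 37 °C. Reaction with 5 μM arachidonic acid stopped after 2 min with HCl; PGE2 quantified by LC-MS-MS. IC50 from 12 concentrations in triplicate.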

[1] = target: T2, human recombinant COX2 (hCOX2) (UniProt P35354); test: LCMS-based COX2 enzymatic inhibition assay (PGE2 quantification); format: biochemical; parameters: COX2 2 minutes pge2/pge2d4 area ratio Avg; other: 2 minutes; readout pge2/pge2d4 area ratio; average; COX2 2 minutes pge2/pge2d4 area ratio Avg; LLE; average LLE; COX2 2 minutes pge2 area (counts) Avg; readout pge2 area (counts); other: 2 min; "ovine COX2 (oCOX2), human recombinant COX2 (hCOX2)"; details: for COX2 2 minutes pge2/pge2d4 area ratio Avg. LLE / COX2 2 minutes pge2 area (counts) Avg. LLE / COX2 10 minutes pge2 area (counts) Avg. LLE: average LLE; for IC50: average
T2 sequence (P35354 1-604): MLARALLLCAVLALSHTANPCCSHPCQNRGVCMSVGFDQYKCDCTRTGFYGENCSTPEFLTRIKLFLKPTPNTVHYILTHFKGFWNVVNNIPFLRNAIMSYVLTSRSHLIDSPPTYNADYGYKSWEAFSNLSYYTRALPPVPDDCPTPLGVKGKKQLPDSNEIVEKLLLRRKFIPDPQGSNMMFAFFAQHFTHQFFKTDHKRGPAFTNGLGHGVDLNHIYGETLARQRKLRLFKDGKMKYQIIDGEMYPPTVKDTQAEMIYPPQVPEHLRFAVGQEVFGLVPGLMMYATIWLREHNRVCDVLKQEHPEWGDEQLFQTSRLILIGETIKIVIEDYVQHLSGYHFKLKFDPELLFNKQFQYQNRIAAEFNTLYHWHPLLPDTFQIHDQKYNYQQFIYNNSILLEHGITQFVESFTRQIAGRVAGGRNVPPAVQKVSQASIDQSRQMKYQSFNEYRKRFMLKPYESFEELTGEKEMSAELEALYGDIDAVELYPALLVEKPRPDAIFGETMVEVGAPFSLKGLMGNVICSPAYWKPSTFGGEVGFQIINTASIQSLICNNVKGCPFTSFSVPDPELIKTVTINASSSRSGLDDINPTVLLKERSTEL
Outline: as §1

[2] = Human Microsome Stability; format: in vitro ADME; details: human microsomes
[3] = Mouse Microsome Stability; format: in vitro ADME; details: mouse microsomes
[4] = Human Plasma Protein Stability (% Remaining); format: in vitro ADME; details: average
[5] = Rat Plasma Protein Stability (% Remaining); format: in vitro ADME; details: average
[6] = rat plasma protein binding (PPB) assay; format: in vitro ADME; details: average, read-out: Rat Plasma Protein Binding % Bound Avg (converted)
Description: (§2) We have adapted a previously reported cyclooxygenase enzymatic assay utilizing LCMS quantification of PGE2 as the product of COX-1 and COX2 catalyzed conversion of arachidonic acid to evaluate the binding properties of newly synthesized ligands [Cao, 2011]. These optimized and miniaturized (384-well plates) LCMS-based COX-1 and COX2 enzymatic assays enabled us to quickly evaluate newly synthesized ligands for COX2 binding affinity and selectivity vs COX-1. Using a shorter ligand-enzyme incubation time in the LCMS assay (2 minutes vs 10 minutes) also permitted us to prioritize ligands with faster binding kinetics. Considering the relatively slow on-rate kinetics of known coxibs, due to their 3-step binding mechanism [Marnett, 2009], we believe that optimizing this critical parameter will be key to the successful development of a COX2 PET tracer. Using these enzymatic assays, we have evaluated>200 newly synthesized ligands against COX2 and >20 ligands against COX-1. Another critical property necessary for a good PET radiotracer is to have low non-specific binding (NSB) to increase the free fraction and maximize the signal to noise ratio. This property can be evaluated using in-vitro protein binding assays, and we have now evaluated>50 newly synthesized ligands in mouse, rat and human plasma protein binding (PPB) assays as well as >15 ligands in a mouse brain protein binding (BPB) assay.

[7] = human plasma protein binding (PPB) assay; format: in vitro ADME; details: average, read-out: Human Plasma Protein Binding % Bound Avg (converted)
Description: as §2

PBS Solubility (no DMSO) = format: physicochemical; details: aqueous buffer, thermodynamic from solid, average
[8] = mouse plasma protein binding (PPB) assay; format: in vitro ADME; details: average, read-out: Mouse Plasma Protein Binding % Bound Avg (converted)
Description: as §2

[9] = Mouse Plasma Protein Stability (% Remaining); format: in vitro ADME; details: average
Rat Microsome Stability = format: in vitro ADME; details: rat microsomes
MDR1 = test: MDR1-MDCKII permeability and efflux; format: in vitro ADME; details: dog, MDCK-MDR1
[10] = pge2 area (counts), head of this section not shown, inferred
[11] = 2 minutes, readout pge2/pge2d4 area ratio
[12] = 2 minutes, readout pge2/pge2d4 area ratio, read-out: COX2 2 minutes pge2/pge2d4 area ratio Avg. IC50
[13] = 2 minutes, readout pge2 area (counts)
[14] = 2 minutes, readout pge2 area (counts), read-out: COX2 2 minutes pge2 area (counts) Avg. IC50
[15] = 10 minutes, readout pge2 area (counts)
[16] = 10 minutes, readout pge2 area (counts), read-out: COX2 10 minutes pge2 area (counts) Avg. IC50
[17] = pge2/pge2d4 area ratio, head of this section not shown, inferred
[18] = pge2 area (counts), head of this section not shown, inferred, read-out: COX1 10 minutes pge2 area (counts) Avg. IC50
[19] = readout pge2/pge2d4 area ratio, average, read-out: COX1 10 minutes pge2/pge2d4 area ratio Avg. IC50

SMILES	COX1 10 minutes pge2 area (counts) Avg. LLE (ovine COX-1 (oCOX-1); [10])	COX2 2 minutes pge2/pge2d4 area ratio Avg. LLE [1, 11]	IC50 [1, 12] [nM]	COX2 2 minutes pge2 area (counts) Avg. LLE [1, 13]	IC50 [1, 14] [nM]	COX2 10 minutes pge2 area (counts) Avg. LLE [1, 15]	IC50 [1, 16] [nM]	Human Microsome Stability % Remaining Avg [2] [%]	Mouse Microsome Stability % Remaining Avg [3] [%]	Human Plasma Protein Stability % Remaining Avg [4] [%]	Rat Plasma Protein Stability % Remaining Avg [5] [%]	fraction unbound [6]	fraction unbound [7]	solubility (PBS Solubility (no DMSO)) [µM]	IC50 (ovine COX-1 (oCOX-1); [19]) [nM]	other results
CS(=O)(=O)c1ccc(-c2cncc(NCc3ccco3)n2)cc1 [Compound 120]	2.724	5.371	118	5.44	124	6.397	11.5	32.4	1.6							
CS(=O)(=O)c1ccc(-c2cncc(NCc3cccs3)n2)cn1 [Compound 141]		5.497	213	5.579	176	6.4815	22.3	55	10							
CS(=O)(=O)c1ccc(-c2nc(OCc3cccs3)cc3ccoc23)cc1 [Compound 5]			6.05		7.14					102	99	0.001	0.001			
CS(=O)(=O)c1ccc(-c2nc(NCc3ccoc3)ccc2F)cc1 [Compound 48]			22		20.1			34		96	128	0.031	0.02	40 (≈ 13.9 µg/mL)		
CS(=O)(=O)c1ccc(-c2cncc(NCc3ccc(F)cc3)n2)cc1 [Compound 96]	2.128	4.85	74.2	4.897	85	5.83	7.94	54.9	30.5						34200	COX1 10 minutes pge2/pge2d4 area ratio Avg. LLE (ovine COX-1 (oCOX-1); [17]): 2.186; IC50 (ovine COX-1 (oCOX-1); [18]): 39000 nM
CS(=O)(=O)c1ccc(-c2cccc(OCc3ccsc3)n2)cc1 [Compound 9]		4.3	8.03	4.276	8.91			35		114	121	0.003	0.003	3.7 (≈ 1.28 µg/mL)	48900	COX1 10 minutes pge2/pge2d4 area ratio Avg. LLE (ovine COX-1 (oCOX-1); readout pge2/pge2d4 area ratio, average LLE): 0.4674
COc1ncc(NCc2ccco2)nc1-c1ccc(S(C)(=O)=O)cc1 [Compound 43]		5.827	19.5	5.859	18.5						107.3	0.028		21 (≈ 7.55 µg/mL)		fraction unbound [8]: 0.046; Mouse Plasma Protein Stability % Remaining Avg [9]: 102.6%; COX1 10 minutes pge2 area (counts) Avg. LLE (ovine COX-1 (oCOX-1); readout pge2 area (counts), average LLE): 2.44; IC50 (ovine COX-1 (oCOX-1); readout pge2 area (counts), average, read-out: COX1 10 minutes pge2 area (counts) Avg. IC50): 42700 nM; Rat Microsome Stability % Remaining Avg (Rat Microsome Stability): 11.1%
CS(=O)(=O)c1ccc(-c2cnc3ccn(Cc4cccs4)c3n2)cc1 [Compound 74]	2.996	3.899	43.2	3.894	47.4	5.561	0.932								305	COX1 10 minutes pge2/pge2d4 area ratio Avg. LLE (ovine COX-1 (oCOX-1); [17]): 3.046; IC50 (ovine COX-1 (oCOX-1); [18]): 342 nM; efflux ratio (MDR1): 1; Papp A→B (MDR1; A-B, read-out: MDR1-MCKII Papp A-B): 32.2 ×10⁻⁶ cm/s; Papp B→A (MDR1; B-A, read-out: MDR1-MCKII Papp B-A): 32 ×10⁻⁶ cm/s
